Experimental data taken from patent US12268690B2, “Treatments for mutations in acute myeloid leukemia” (OREGON HEALTH & SCIENCE UNIVERSITY, priority 2018, dated 2025).

Tested on: freshly isolated mononuclear cells from AML samples
Assay: Ex vivo functional drug screen (MTS viability, AUC) on primary AML samples, compared by mutation or clinical group
Type: cell-based, human

SMILES: C[C@@H]1CCN(C(=O)CC#N)C[C@@H]1N(C)c1ncnc2[nH]ccc12 [Tofacitinib]
- sensitivity to JAK kinase inhibitors, mutant versus wild type (average AUC difference, one-way ANOVA) (BCOR mutation alone or co-mutation of BCOR with DNMT3A or SRSF2): no difference in sensitivity
- drug sensitivity mutant vs wild type (average difference in AUC; top left quadrant of volcano plot) (ZRSR2): Tofacitinib
- sensitivity to JAK kinase inhibitors, mutant versus wild type (average AUC difference, one-way ANOVA) (co-mutation of BCOR with RUNX1): increased sensitivity
